Entries after “also recorded” stand apart in the source; their conditions may differ.
What was measured:
[1] = test system: 32DtetP210Bcr-Abl cells (32D-bcr-abl); assay: Low cell density cell proliferation / cell death assay, bcr-abl dependent cells; assay type: cell-based, murine; settings: for activity / selectivity: in words; for inhibition of the 32DtetP210bcrabl cell line: 1 micromolar, FIG. 13, in words; for activity (death of 32D-bcr-abl cells) / selectivity (32D-bcr-abl over control cells): result in words; for activity (death of 32D-bcr-abl cells): structure-activity comparison; for selectivity (32D-bcr-abl over control cells): versus control 32D cell line
Procedure: (§1) The acetylenes were prepared by deprotonation of a propiolate (either methyl or tert-butyl) with n-butyllithium and subsequent reaction with an isocyanate (FIG. 4). Modifications may be readily made following the aforementioned schemes. The furan and acetylene libraries were both tested for activity in a cell-based assay where the death of engineered murine myeloid cells (32D-bcr-abl), the survival of which depends on the activity of bcr-abl tyrosine kinase, was sought.
(§2) The biological activity of these compounds was evaluated in two ways, a murine cell line differential proliferation assay and a NCI 60 human carcinoma cell-line growth inhibition and cell death assay. The murine cell death assays were performed using a p210bcrabl transformed 32D murine cell line. […] The NCl assay was performed in the Developmental Therapeutics Program at the National Cancer Institute. This assay measures the inhibition of cell growth and cell death from sixty different human carcinomas.
(§3) The furan and acetylene libraries were both tested for activity in a cell-based assay where the death of engineered murine myeloid cells (32D-bcr-abl), the survival of which is depends on the activity of bcr-abl tyrosine kinase, was sought.
(§4) Low cell density high throughput cell proliferation assay Between 50 and 100 32D and 32DtetP210Bcr-Abl cells in 100 microliters of medium without serum were exposed to the test compound for 15 minutes. An equal volume of 20% serum supplemented tissue culture medium was then added and the cells were inoculated in single well in 32 wells of a 96 well plate. The endpoint of the assay was the fraction of the 32 wells in which a cell pellet was seen to develop which was filled with live cells. This assay is subject to automated screening by a plate reader for the cell pellet. We used this high throughput assay to screen for compounds that suppress the growth of the 32DtetP210Bcr-Abl cell line in the absence of IL-3, but allow the growth of the 32D cell line in the presence of IL-3. Various concentrations of each compound were tested.

32D cells = assay: Low cell density cell proliferation assay, control cell line; assay type: cell-based, murine; settings: for control cells surviving: 100 nM
Procedure: as §1
as §2, with “carcinomas. Both the acetylene and furan structural cores represent novel chemical entities with no prior reports of biological activity. […] At present, the use of these compounds is to be preferred in the treatment of tumors and cancer.” for “carcinomas.”
as §3, §4

CDK2/cyclinA = target: T1, CDK2/cyclinA (Homo sapiens, UniProt P24941); assay: Cell free kinase inhibition assay; assay type: biochemical
T1 construct: purchased Upstate Biotechnologies, Lake Placid, N.Y
Procedure: (§5) Cell Free Kinase Inhibition Assay. A panel of 60 kinases (Upstate Biotechnologies, Lake Placid, N.Y.) were analyzed in in vitro cell free kinase assays.

CK1 = assay: Cell free kinase inhibition assay; assay type: biochemical
Procedure: as §5

CaMKII = assay: Cell free kinase inhibition assay; assay type: biochemical
Procedure: as §5

CaMKIV = target: T2, CaMKIV (Homo sapiens, UniProt Q16566); assay: Cell free kinase inhibition assay; assay type: biochemical
T2 construct: purchased Upstate Biotechnologies, Lake Placid, N.Y
T2 sequence (Q16566 1-473): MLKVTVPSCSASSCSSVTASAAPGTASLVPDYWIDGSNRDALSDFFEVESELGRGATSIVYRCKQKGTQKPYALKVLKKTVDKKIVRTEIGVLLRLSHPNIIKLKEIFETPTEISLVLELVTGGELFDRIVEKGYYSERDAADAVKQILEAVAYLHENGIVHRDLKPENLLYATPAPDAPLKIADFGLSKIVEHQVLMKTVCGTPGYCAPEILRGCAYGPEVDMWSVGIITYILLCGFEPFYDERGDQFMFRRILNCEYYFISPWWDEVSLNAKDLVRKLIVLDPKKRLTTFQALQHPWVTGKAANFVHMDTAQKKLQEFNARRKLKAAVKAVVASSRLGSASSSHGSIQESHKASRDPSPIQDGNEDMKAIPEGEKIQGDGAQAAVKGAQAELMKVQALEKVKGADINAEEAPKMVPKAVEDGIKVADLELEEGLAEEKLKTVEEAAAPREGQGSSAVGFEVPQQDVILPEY
Procedure: as §5

Fyn = target: T3, Fyn (Homo sapiens, UniProt P06241); assay: Cell free kinase inhibition assay; assay type: biochemical
T3 construct: purchased Upstate Biotechnologies, Lake Placid, N.Y
T3 sequence (P06241 whole entry, species assumed): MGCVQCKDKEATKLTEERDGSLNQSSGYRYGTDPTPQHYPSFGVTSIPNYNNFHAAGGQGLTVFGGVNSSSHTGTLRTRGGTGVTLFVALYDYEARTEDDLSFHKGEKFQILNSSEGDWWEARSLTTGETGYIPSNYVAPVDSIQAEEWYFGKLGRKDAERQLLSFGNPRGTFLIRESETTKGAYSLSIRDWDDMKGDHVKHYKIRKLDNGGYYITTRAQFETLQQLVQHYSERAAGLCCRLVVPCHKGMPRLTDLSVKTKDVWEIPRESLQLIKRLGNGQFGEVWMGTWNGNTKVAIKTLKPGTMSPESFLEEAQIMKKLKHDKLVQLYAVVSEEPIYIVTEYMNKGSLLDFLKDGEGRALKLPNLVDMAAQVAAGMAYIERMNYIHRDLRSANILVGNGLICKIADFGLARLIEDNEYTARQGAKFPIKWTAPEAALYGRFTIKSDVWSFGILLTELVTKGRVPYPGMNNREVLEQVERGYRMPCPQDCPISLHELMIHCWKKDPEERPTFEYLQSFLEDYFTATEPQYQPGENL
Procedure: as §5

IKKBeta = target: T4, IKKBeta (Homo sapiens, UniProt O14920); assay: Cell free kinase inhibition assay; assay type: biochemical
T4 construct: purchased Upstate Biotechnologies, Lake Placid, N.Y
T4 sequence (O14920 1-756): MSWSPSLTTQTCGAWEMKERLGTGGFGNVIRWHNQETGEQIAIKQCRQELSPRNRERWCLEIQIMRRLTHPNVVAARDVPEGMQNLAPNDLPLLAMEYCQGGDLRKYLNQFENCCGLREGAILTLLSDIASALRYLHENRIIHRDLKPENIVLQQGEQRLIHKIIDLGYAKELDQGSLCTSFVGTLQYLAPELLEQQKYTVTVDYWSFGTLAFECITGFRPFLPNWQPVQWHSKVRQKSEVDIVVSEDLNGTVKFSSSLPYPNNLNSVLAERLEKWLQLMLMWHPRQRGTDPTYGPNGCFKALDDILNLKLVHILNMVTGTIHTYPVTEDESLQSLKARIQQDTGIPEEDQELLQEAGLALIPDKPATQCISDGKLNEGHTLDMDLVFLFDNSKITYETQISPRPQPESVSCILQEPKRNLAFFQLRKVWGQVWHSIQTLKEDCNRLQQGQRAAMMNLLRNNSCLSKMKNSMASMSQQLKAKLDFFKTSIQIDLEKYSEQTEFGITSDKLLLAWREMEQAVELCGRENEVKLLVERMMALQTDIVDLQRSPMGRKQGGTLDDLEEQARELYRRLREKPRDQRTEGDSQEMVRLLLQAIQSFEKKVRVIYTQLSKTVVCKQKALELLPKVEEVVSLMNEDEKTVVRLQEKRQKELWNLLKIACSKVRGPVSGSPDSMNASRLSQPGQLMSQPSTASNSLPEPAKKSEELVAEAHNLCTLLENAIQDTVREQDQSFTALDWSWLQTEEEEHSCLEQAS
Procedure: as §5

Lyn = target: T5, Lyn (Homo sapiens, UniProt P07948); assay: Cell free kinase inhibition assay; assay type: biochemical
T5 construct: purchased Upstate Biotechnologies, Lake Placid, N.Y
T5 sequence (P07948 whole entry, species assumed): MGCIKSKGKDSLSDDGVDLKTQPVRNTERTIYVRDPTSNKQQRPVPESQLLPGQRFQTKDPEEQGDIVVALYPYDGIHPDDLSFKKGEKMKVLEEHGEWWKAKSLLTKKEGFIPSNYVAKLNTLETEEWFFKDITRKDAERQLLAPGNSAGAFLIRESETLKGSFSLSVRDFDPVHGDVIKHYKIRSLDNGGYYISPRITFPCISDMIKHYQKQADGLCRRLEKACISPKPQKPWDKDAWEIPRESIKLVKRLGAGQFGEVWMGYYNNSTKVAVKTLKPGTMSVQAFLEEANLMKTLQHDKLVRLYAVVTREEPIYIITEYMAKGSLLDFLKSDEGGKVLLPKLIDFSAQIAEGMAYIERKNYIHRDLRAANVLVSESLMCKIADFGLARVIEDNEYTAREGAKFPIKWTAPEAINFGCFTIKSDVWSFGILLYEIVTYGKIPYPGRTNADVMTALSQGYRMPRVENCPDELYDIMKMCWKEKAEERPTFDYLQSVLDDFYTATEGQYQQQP
Procedure: as §5

PKCbII = target: T6, PKCbII (Homo sapiens, UniProt P05771); assay: Cell free kinase inhibition assay; assay type: biochemical
T6 construct: purchased Upstate Biotechnologies, Lake Placid, N.Y
T6 sequence (P05771 1-673 isoform P05771-2): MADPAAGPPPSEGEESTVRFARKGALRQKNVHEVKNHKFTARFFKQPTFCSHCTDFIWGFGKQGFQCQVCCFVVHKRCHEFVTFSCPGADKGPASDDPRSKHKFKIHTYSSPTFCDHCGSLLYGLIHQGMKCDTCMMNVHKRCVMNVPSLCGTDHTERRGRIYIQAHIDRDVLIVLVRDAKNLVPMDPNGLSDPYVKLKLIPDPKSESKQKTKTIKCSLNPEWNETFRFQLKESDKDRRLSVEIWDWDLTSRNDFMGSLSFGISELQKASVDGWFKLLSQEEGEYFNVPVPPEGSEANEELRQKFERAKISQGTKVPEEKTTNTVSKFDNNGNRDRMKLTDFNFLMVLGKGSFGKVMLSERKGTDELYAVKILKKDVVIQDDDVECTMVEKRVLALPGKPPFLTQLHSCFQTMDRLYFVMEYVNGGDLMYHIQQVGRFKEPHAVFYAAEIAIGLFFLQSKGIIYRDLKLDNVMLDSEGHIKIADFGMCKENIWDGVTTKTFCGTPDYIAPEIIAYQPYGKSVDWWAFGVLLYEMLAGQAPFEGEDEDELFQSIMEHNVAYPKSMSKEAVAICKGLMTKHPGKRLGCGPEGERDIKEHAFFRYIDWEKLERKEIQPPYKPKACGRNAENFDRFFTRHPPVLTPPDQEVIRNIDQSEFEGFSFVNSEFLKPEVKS
Procedure: as §5

PKCy = target: T7, PKCy (Homo sapiens, UniProt P05129); assay: Cell free kinase inhibition assay; assay type: biochemical
T7 construct: purchased Upstate Biotechnologies, Lake Placid, N.Y
Procedure: as §5

leukemia cell lines = assay: NCI 60 human carcinoma cell-line growth inhibition assay, leukemia panel; assay type: cell-based; settings: span over the lines
Procedure: as §2, with “carcinomas. Both the acetylene and furan structural cores represent novel chemical entities with no prior reports of biological activity. […] At present, the use of these compounds is to be preferred in the treatment of tumors and cancer.” for “carcinomas.”
(§6) In order to obtain additional information about the behavior of our compounds in cancerous cells, 18 compounds were submitted to and accepted by the NCl for testing on 60 human carcinoma cell lines as set forth in the examples section. This would confirm the activity seen in our cell-based assay and maybe give an insight into the mechanism of action and biological target of the acetylene/furan compounds. […] As a result, K1P was singled out by the NCl for further testing: MTD (Maximum Tolerated Dose) and murine hollow fiber in vivo assay. These are being carried out at the present time, along with testing of furans AN7A and AN7B in the 60 human cancer cell lines. […]

[2] = test system: carcinoma and model carcinoma cell lines; assay: Summary of activity in the cell line assays; assay type: cell-based; settings: in words
Procedure: as §2, with “carcinomas. Both the acetylene and furan structural cores represent novel chemical entities with no prior reports of biological activity. […] At present, the use of these compounds is to be preferred in the treatment of tumors and cancer.” for “carcinomas.”

renal cell lines = assay: NCI 60 human carcinoma cell-line growth inhibition assay, renal panel; assay type: cell-based; settings: span over the lines
Procedure: as §2, with “carcinomas. Both the acetylene and furan structural cores represent novel chemical entities with no prior reports of biological activity. […] At present, the use of these compounds is to be preferred in the treatment of tumors and cancer.” for “carcinomas.”
as §6

[3] = test system: 60 human carcinoma cell lines; assay: NCI 60 human carcinoma cell-line growth inhibition and cell death assay, whole panel; assay type: cell-based
Procedure: as §2, with “carcinomas. Both the acetylene and furan structural cores represent novel chemical entities with no prior reports of biological activity. […] At present, the use of these compounds is to be preferred in the treatment of tumors and cancer.” for “carcinomas.”
as §6

COC(=O)C#CC(=O)Nc1ccc(Oc2ccccc2)cc1 [AC22]
activity ([1]; 10 nM): not active
activity ([1]; 100 nM): excellent activity; also recorded: very active
selectivity ([1]; 100 nM): not selective
inhibition of the 32DtetP210bcrabl cell line [1]: inhibitory
inhibition at 0.01 µM ([1]; Mus musculus, 10 nanomolar of each drug, 32DtetP210bcrabl cell line, read-out: inhibition of P210bcrabl dependent cell growth): 10%
inhibition of the 32Dtet cell line (32D cells; similar concentration (1 micromolar), in words): inhibits
inhibition at 10 µM (CDK2/cyclinA): 50%
% Inhibition at 10 μM (CK1): (37) %
% Inhibition at 10 μM (CaMKII): 40%
inhibition at 10 µM (CaMKIV): 64%
inhibition at 10 µM (Fyn): 29%
inhibition at 10 µM (IKKBeta): 45%
inhibition at 10 µM (Lyn): 98%
inhibition at 10 µM (PKCbII): 48%
inhibition at 10 µM (PKCy): 61%
GI50 (leukemia cell lines): 2.6 to 7.3 µM
activity against carcinoma and model carcinoma cell lines [2]: good activity

COC(=O)C#CC(=O)Nc1cc(OC)cc(OC)c1 [AC17]
activity ([1]; 1 uM level): activity was regained
selectivity ([1]; 1 uM level): selectivity remained low

COC(=O)C#CC(=O)Nc1ccc(-c2ccccc2)cc1 [AC21]
activity ([1]; 100 nM): excellent activity
selectivity ([1]; 100 nM): only AC19 shows selectivity

COC(=O)C#CC(=O)Nc1cccc(OC)c1 [AC15]
activity ([1]; 1 uM level): activity was regained
selectivity ([1]; 1 uM level): selectivity remained low

COC(=O)C#CC(=O)Nc1ccc(OC)cc1 [AC3]
activity (death of 32D-bcr-abl cells) [1]: decreased activity and selectivity dramatically
selectivity (32D-bcr-abl over control cells) [1]: decreased activity and selectivity dramatically

COC(=O)C#CC(=O)Nc1ccccc1OC [AC16]
activity ([1]; 1 uM level): activity was regained
selectivity ([1]; 1 uM level): selectivity remained low

COC(=O)C#CC(=O)Nc1c(F)cccc1F [AC9]
activity (death of 32D-bcr-abl cells) [1]: inactive

COC(=O)C#CC(=O)Nc1ccccc1 [AC6]
activity (death of 32D-bcr-abl cells) [1]: increased both selectivity and activity
selectivity (32D-bcr-abl over control cells) [1]: increased both selectivity and activity

COC(=O)C#CC(=O)NCc1ccccc1 [AC13]
activity (death of 32D-bcr-abl cells) [1]: active
selectivity (32D-bcr-abl over control cells) [1]: little selectivity

COC(=O)C#CC(=O)NC1CCCCC1 [K1P]
leukemic cells surviving ([1]; 100 nM): 50%
inhibition of the 32DtetP210bcrabl cell line [1]: inhibitory
control cells surviving (32D cells): 100%
% Inhibition at 10 μM (CK1): 46%
inhibition at 10 µM (Fyn): 49%
inhibition at 10 µM (PKCbII): 35%
GI50 (leukemia cell lines): 0.8 to 5 µM
GI50 (renal cell lines): 2.5 to 2.7 µM
activity in the NCI cell lines ([3]; certain leukemia, colon cancer, melanoma, renal cancer cell lines and a breast cancer cell line, in words): enhanced activity
activity against carcinoma and model carcinoma cell lines [2]: good activity

CC(C)(C)OC(=O)C#CC(=O)NC1CCCCC1 [AC1]
leukemic cells surviving ([1]; 100 nM): 50%
control cells surviving (32D cells): 100%

Cc1ccc(NC(=O)c2ccc(CN3CCN(C)CC3)cc2)cc1Nc1nccc(-c2cccnc2)n1 [STI-571, reference compound]
control cells alive (32D cells; 10 nM, in words): all the control cells are still alive

COC(=O)C#CC(=O)Nc1c(C(C)C)cccc1C(C)C [AC10]
activity (death of 32D-bcr-abl cells) [1]: moderate activity
selectivity (32D-bcr-abl over control cells) [1]: no selectivity

COC(=O)C#CC1CCCCC1 [AC11]
activity (death of 32D-bcr-abl cells) [1]: little or no activity

COC(=O)C#CC(=O)Nc1ccc2ccccc2c1 [AC19]
activity ([1]; 100 nM): excellent activity
selectivity ([1]; 100 nM): shows selectivity
concentration below which no activity was shown ([3]; NCI 60 cell lines): ≥ 10 µM
activity against carcinoma and model carcinoma cell lines [2]: good activity

Source: patent publication US7304092B1, “Compounds and methods for treating tumors, cancer and hyperproliferative diseases” (Yale University, priority 2002, dated 2007)
